Calls of active or inactive are those of the source. No rule for the calls is given here.
Tested on: CCRIS mutagenicity, Ames/micronucleus/aberration tests
Experiment: CCRIS mutagenicity studies
[1] = Test System: AMES SALMONELLA TYPHIMURIUM, Strain/Indicator: TA100, Metabolic Activation: NONE, Method: PREINCUBATION
[2] = Test System: AMES SALMONELLA TYPHIMURIUM, Strain/Indicator: TA98, Metabolic Activation: NONE, Method: PREINCUBATION

For `FC(F)Cl`, which mutagenic call (End Point: IN VITRO CHROMOSOMAL ABERRATIONS, Test System: CHL CELLS, Metabolic Activation: NONE) is on record?
Its mutagenic call is “inactive; negative”.

What about the mutagenic call (End Point: IN VITRO CHROMOSOMAL ABERRATIONS, Test System: CHL CELLS, Metabolic Activation: RAT, LIVER, S-9, SODIUM PHENOBARBITAL AND 5,6-BENZOFLAVONE) of the same compound?
Its mutagenic call is “inactive; negative”.

And the mutagenic call (Test System: AMES SALMONELLA TYPHIMURIUM, Strain/Indicator: TA98, Metabolic Activation: NONE, Method: GAS EXPOSURE)?
The mutagenic call was “inactive; negative”.

And the mutagenic call (Test System: AMES SALMONELLA TYPHIMURIUM, Strain/Indicator: TA98, Metabolic Activation: RAT LIVER S-9, PHENOBARBITAL AND BETA-NAPHTHOFLAVONE (40%), Method: GAS EXPOSURE)?
Its mutagenic call is “inactive; negative”.

What about the mutagenic call (Test System: AMES SALMONELLA TYPHIMURIUM, Strain/Indicator: TA98, Metabolic Activation: RAT, LIVER, S-9, PHENOBARBITAL AND 5,6-BENZOFLAVONE, Method: GAS EXPOSURE) of the same compound?
Its mutagenic call is “inactive; negative”.

What about the mutagenic call (Test System: AMES SALMONELLA TYPHIMURIUM, Strain/Indicator: TA100, Metabolic Activation: RAT LIVER S-9, PHENOBARBITAL AND BETA-NAPHTHOFLAVONE (40%), Method: GAS EXPOSURE) of the same compound?
The mutagenic call was “active; positive”.

What about the mutagenic call (Test System: AMES SALMONELLA TYPHIMURIUM, Strain/Indicator: TA100, Metabolic Activation: RAT, LIVER, S-9, PHENOBARBITAL AND 5,6-BENZOFLAVONE, Method: GAS EXPOSURE) of the same compound?
Its mutagenic call is “active; positive”.

What about the mutagenic call (Test System: AMES SALMONELLA TYPHIMURIUM, Strain/Indicator: TA1535, Metabolic Activation: NONE, Method: GAS EXPOSURE) of the same compound?
Its mutagenic call is “active; positive”.

What about the mutagenic call (Test System: AMES SALMONELLA TYPHIMURIUM, Strain/Indicator: TA1535, Metabolic Activation: RAT LIVER S-9, PHENOBARBITAL AND BETA-NAPHTHOFLAVONE (40%), Method: GAS EXPOSURE) of the same compound?
The mutagenic call was “active; positive”.

And the mutagenic call (Test System: AMES SALMONELLA TYPHIMURIUM, Strain/Indicator: TA1535, Metabolic Activation: RAT, LIVER, S-9, AROCLOR 1254, Method: DESICCATOR)?
The mutagenic call was “active; positive”.

And the mutagenic call (Test System: AMES SALMONELLA TYPHIMURIUM, Strain/Indicator: TA1535, Metabolic Activation: RAT, LIVER, S-9, PHENOBARBITAL AND 5,6-BENZOFLAVONE, Method: GAS EXPOSURE)?
Its mutagenic call is “active; positive”.

And the mutagenic call (Test System: AMES SALMONELLA TYPHIMURIUM, Strain/Indicator: TA1537, Metabolic Activation: NONE, Method: GAS EXPOSURE)?
Its mutagenic call is “inactive; negative”.

And the mutagenic call (Test System: AMES SALMONELLA TYPHIMURIUM, Strain/Indicator: TA1537, Metabolic Activation: RAT LIVER S-9, PHENOBARBITAL AND BETA-NAPHTHOFLAVONE (40%), Method: GAS EXPOSURE)?
Its mutagenic call is “inactive; negative”.

And the mutagenic call (Test System: AMES SALMONELLA TYPHIMURIUM, Strain/Indicator: TA1537, Metabolic Activation: RAT, LIVER, S-9, PHENOBARBITAL AND 5,6-BENZOFLAVONE, Method: GAS EXPOSURE)?
Its mutagenic call is “inactive; negative”.

And the mutagenic call (Test System: E. COLI, Strain/Indicator: WP2 UVRA, Metabolic Activation: NONE, Method: GAS EXPOSURE)?
Its mutagenic call is “inactive; negative”.

And the mutagenic call (Test System: E. COLI, Strain/Indicator: WP2 UVRA, Metabolic Activation: RAT, LIVER, S-9, PHENOBARBITAL AND 5,6-BENZOFLAVONE, Method: GAS EXPOSURE)?
Its mutagenic call is “inactive; negative”.

What about the mutagenic call (Test System: E.COLI, Strain/Indicator: WP2UVRA, Metabolic Activation: NONE, Method: GAS EXPOSURE) of the same compound?
The mutagenic call was “inactive; negative”.

And the mutagenic call (Test System: E.COLI, Strain/Indicator: WP2UVRA, Metabolic Activation: RAT LIVER S-9, PHENOBARBITAL AND BETA-NAPHTHOFLAVONE (40%), Method: GAS EXPOSURE)?
Its mutagenic call is “inactive; negative”.

How did the mutagenic call (Test System: AMES SALMONELLA TYPHIMURIUM, Strain/Indicator: TA1537, Metabolic Activation: NONE, Method: STANDARD PLATE) turn out when `[N-]=[N+]=Nc1ccc(Nc2c3ccccc3nc3ccccc23)cc1` was run?
Its mutagenic call is “active; positive”.

How did the mutagenic call (Test System: AMES SALMONELLA TYPHIMURIUM, Strain/Indicator: TA102, Metabolic Activation: NONE, Method: STANDARD PLATE) turn out when `COc1cccc2c1C(=O)c1c(O)c3c(c(O)c1C2=O)C[C@@](O)(C(C)=O)C[C@@H]3O[C@@H]1C[C@@H](N(C)C)[C@@H](O)[C@@H](C)O1` was run?
Its mutagenic call is “active; positive”.

How did the mutagenic call (Test System: AMES SALMONELLA TYPHIMURIUM, Strain/Indicator: TA1535, Metabolic Activation: RAT, LIVER, MICROSOMES, Method: STANDARD PLATE) turn out when `NC(=O)OC1CO1` (stereo not drawn) was run?
The mutagenic call was “active; positive”.

For `Cc1c2c3ccccc3nc-2n(C)c2ccccc12`, which mutagenic call (Test System: AMES SALMONELLA TYPHIMURIUM, Strain/Indicator: TA97, Metabolic Activation: RAT, LIVER, S-9, AROCLOR 1254, Method: STANDARD PLATE) is on record?
Its mutagenic call is “active; positive”.

And the mutagenic call (Test System: AMES SALMONELLA TYPHIMURIUM, Strain/Indicator: TA102, Metabolic Activation: RAT, LIVER, S-9, AROCLOR 1254, Method: STANDARD PLATE)?
The mutagenic call was “active; positive”.

How did the mutagenic call (Test System: AMES SALMONELLA TYPHIMURIUM, Strain/Indicator: TA98, Metabolic Activation: NONE, Method: STANDARD PLATE) turn out when `C[C@@]12CCC=C(C=O)[C@]1(C=O)C2` was run?
The mutagenic call was “active; positive”.

What about the mutagenic call (Test System: AMES SALMONELLA TYPHIMURIUM, Strain/Indicator: TA100, Metabolic Activation: NONE, Method: STANDARD PLATE) of the same compound?
Its mutagenic call is “active; positive”.

What does the source list for `C[Si](C)(C)CN(N=O)C(N)=O`?
mutagenic call [1]: active; positive; mutagenic call (Test System: CHINESE HAMSTER V-79, Strain/Indicator: V-79/OUABAIN, Metabolic Activation: NONE): active; positive; mutagenic call (Test System: E. COLI, Strain/Indicator: H/R30R, Metabolic Activation: NONE, Method: PREINCUBATION): active; positive; mutagenic call (Test System: E. COLI, Strain/Indicator: HS30R UVRA, Metabolic Activation: NONE, Method: PREINCUBATION): active; positive; mutagenic call (Test System: E. COLI, Strain/Indicator: NG30 RECA, Metabolic Activation: NONE, Method: PREINCUBATION): active; positive; mutagenic call (Test System: E. COLI, Strain/Indicator: O16 POLA, Metabolic Activation: NONE, Method: PREINCUBATION): active; positive

What does the source list for `O[C@H]1[C@H]2O[C@H]2c2ccc3c(ccc4ccccc43)c2[C@@H]1O`?
mutagenic call [2]: active; positive; mutagenic call (Test System: CHINESE HAMSTER V-79, Strain/Indicator: V-79/6-THIOGUANINE, Metabolic Activation: NONE): active; positive

How did the mutagenic call [2] turn out when `O=C=Nc1cccc2c(N=C=O)cccc12` was run?
The mutagenic call was “inactive; negative”.

And the mutagenic call (Test System: AMES SALMONELLA TYPHIMURIUM, Strain/Indicator: TA98, Metabolic Activation: RAT LIVER S-9, PHENOBARBITAL AND BETA-NAPHTHOFLAVONE, Method: PREINCUBATION)?
The mutagenic call was “inactive; negative”.

What about the mutagenic call [1] of the same compound?
The mutagenic call was “inactive; negative”.

And the mutagenic call (Test System: AMES SALMONELLA TYPHIMURIUM, Strain/Indicator: TA100, Metabolic Activation: RAT LIVER S-9, PHENOBARBITAL AND BETA-NAPHTHOFLAVONE, Method: PREINCUBATION)?
Its mutagenic call is “inactive; negative”.

What about the mutagenic call (Test System: AMES SALMONELLA TYPHIMURIUM, Strain/Indicator: TA1535, Metabolic Activation: NONE, Method: PREINCUBATION) of the same compound?
The mutagenic call was “inactive; negative”.

What about the mutagenic call (Test System: AMES SALMONELLA TYPHIMURIUM, Strain/Indicator: TA1535, Metabolic Activation: RAT LIVER S-9, PHENOBARBITAL AND BETA-NAPHTHOFLAVONE, Method: PREINCUBATION) of the same compound?
The mutagenic call was “inactive; negative”.

And the mutagenic call (Test System: AMES SALMONELLA TYPHIMURIUM, Strain/Indicator: TA1537, Metabolic Activation: NONE, Method: PREINCUBATION)?
Its mutagenic call is “inactive; negative”.

What about the mutagenic call (Test System: AMES SALMONELLA TYPHIMURIUM, Strain/Indicator: TA1537, Metabolic Activation: RAT LIVER S-9, PHENOBARBITAL AND BETA-NAPHTHOFLAVONE, Method: PREINCUBATION) of the same compound?
The mutagenic call was “inactive; negative”.

What about the mutagenic call (Test System: AMES SALMONELLA TYPHIMURIUM, Strain/Indicator: TA1538, Metabolic Activation: NONE, Method: PREINCUBATION) of the same compound?
Its mutagenic call is “inactive; negative”.

And the mutagenic call (Test System: AMES SALMONELLA TYPHIMURIUM, Strain/Indicator: TA1538, Metabolic Activation: RAT LIVER S-9, PHENOBARBITAL AND BETA-NAPHTHOFLAVONE, Method: PREINCUBATION)?
The mutagenic call was “inactive; negative”.

And the mutagenic call (Test System: E.COLI, Strain/Indicator: WP2UVRA, Metabolic Activation: NONE, Method: PREINCUBATION)?
Its mutagenic call is “inactive; negative”.

And the mutagenic call (Test System: E.COLI, Strain/Indicator: WP2UVRA, Metabolic Activation: RAT LIVER S-9, PHENOBARBITAL AND BETA-NAPHTHOFLAVONE, Method: PREINCUBATION)?
The mutagenic call was “inactive; negative”.

What does the source list for `Cc1cnc2ccccc2c1`?
mutagenic call [2]: inactive; negative; mutagenic call (Test System: AMES SALMONELLA TYPHIMURIUM, Strain/Indicator: TA98, Metabolic Activation: RAT, LIVER, S-9, Method: PREINCUBATION): inactive; negative; mutagenic call [1]: inactive; negative; mutagenic call (Test System: AMES SALMONELLA TYPHIMURIUM, Strain/Indicator: TA100, Metabolic Activation: RAT, LIVER, S-9, PHENOBARBITAL AND 5,6-BENZOFLAVONE, Method: PREINCUBATION): active; positive; mutagenic call (Test System: AMES SALMONELLA TYPHIMURIUM, Strain/Indicator: TA100, Metabolic Activation: RAT, LIVER, S-9, PHENOBARBITAL AND 5,6-NAPHTHOFLAVONE, Method: PREINCUBATION): active; positive

What does the source list for `COc1cccc2c1C(=O)c1c(O)c3c(c(O)c1C2=O)CC(O)(C(C)=O)CC3O[C@H]1C[C@H](N2CCOCC2)[C@@H](O)C(C)O1` (stereo partly drawn)?
mutagenic call (Test System: CHINESE HAMSTER V-79, Strain/Indicator: V-79/8-AZAGUANINE, Metabolic Activation: NONE): active; positive; mutagenic call (Test System: CHINESE HAMSTER V-79, Strain/Indicator: V-79/8-AZAGUANINE, Metabolic Activation: RAT, HEPATOCYTES): inactive; negative; mutagenic call (Test System: UDS RAT HEPATOCYTES, Strain/Indicator: THY INCORP, Metabolic Activation: NONE, Method: AUTOMATIC COLONY COUNTER): active; positive

— PubChem BioAssay AID1259407 (Chemical Carcinogenesis Research Information System (CCRIS), 2018)
